Assay results as given in patent US5081242A, “6-benzoxazinyl- and 6-benzothiazinyl 2,3,4,5-tetrahydropyridazin-3-ones” (Ortho Pharmaceutical Corporation, priority 1991, dated 1992).

Key:
[1] = test system: adult mongrel dogs; assay: Cardiotonic activity in anesthetized dogs (myocardial contractile force, i.v.); format: in vivo; conditions: Canis lupus familiaris, iv, vs pretreatment control, read-out: CF: Percent increase in cardiac force; for change in vivo at 0.47 mg/kg: i.v. dose 0.47 mpk
Description: The cardiotonic activity of the compounds was determined in accordance with the method of Alousi, A. A., et al., J. Cir. Res. 45, 666 (1979). Basically, adult mongrel dogs were anesthetized with sodium pentobarbital and artificially respired. Arterial pressure was recorded via a femoral artery and the pressure pulse used to trigger a cardiotachometer for heart rate. Left ventricular pressure was measured with a Millar catheter and dP/dt was derived. Cardiac output was determined by measuring ascending aortic blood flow with an electromagnetic flow probe and myocardial contractile force was measured with a Walton Brodie strain gauge sutured to the right ventricle. Lead II EKG was also recorded. A standard does of dopamine was administered to assess myocardial responsiveness. Test compounds were administered by i.v. infusion or bolus administration and the effects on cardiovascular parameters were determined. Dose-related effects of the test compound on BP, HR, dP/dt max., C.F. and C.O. were compared to pretreatment control values and expressed as a percentage change.

[2] = target: cyclic nucleotide phosphodiesterase; assay: Phosphodiesterase inhibitory activity (cyclic AMP hydrolysis); format: biochemical; conditions: read-out: IC50 (50% inhibition of cyclic nucleotide phosphodiesterase activity); cyclic AMP 0.10-1.0 μM, pH 7.4

SMILES	change in vivo at 0.47 mg/kg [1] [%]	IC50 [2] [µM]	change in vivo at 1.87 mg/kg ([1]; i.v. dose 1.87 mpk) [%]
CC1CNc2cc(C3=NNC(=O)CC3C)ccc2O1 (stereo not drawn) [Example 19, 6-(3,4-Dihydro-2-methyl-1,4(2H)-benzoxazin-6-yl)-2,3,4,5-tetrahydro-5-methylpyridazin-3-one]	98	40	–
COc1ccc(C(=O)N2CCOc3ccc(C4=NNC(=O)CC4)cc32)cc1OC [Example 14, 6-(3,4-Dihydro-4-(3,4-dimethoxyphenylcarbonyl)-1,4(2H)-benzoxazin-6-yl)-2,3,4,5-tetrahydropyridazin-3-one]	–	80	30
Cc1cc2c(c(C3=NNC(=O)CC3C)c1)OCC(=O)N2 (stereo not drawn) [Example 40, 6-(3,4-Dihydro-6-methyl-3-oxo-1,4(2H)-benzoxazin-8-yl)-2,3,4,5-tetrahydro-5-methylpyridazin-3-one]	22	26	–
